Reference: paper PMC10254233, “Synthesis and In Vitro Biological Evaluation of p-Carborane-Based Di-tert-butylphenol Analogs” (Molecules, 2023)

What was measured:
[1] = tested on: A375 melanoma; assay: Cell viability, crystal violet (CV) assay, A375; assay type: cell-based; conditions: Homo sapiens, A-375; 72 h, mean ± SD
Method: (§1) Five human cell lines (A375 melanoma, A549 lung adenocarcinoma, HCT116 and HT29 colorectal carcinoma, MDA-MB-231 triple-negative breast adenocarcinoma) were used to study the antitumor effects of the di-tert-butylphenols and their respective carborane analogs. All selected cell lines were derived from inflammation-associated tumors.
(§2) After the incubation period, the supernatant was discarded from the wells, and the cells were washed two times with 200 µL of PBS. Next, MTT solution at a final concentration of 0.5 mg/mL was added and incubated at 37 °C until purple formazan crystals were formed (30 min to one hour). After incubation, the dye was discarded. In order to dissolve the formed formazan crystals DMSO was added, and the absorbance was measured at λmax = 540 nm, with the reference/background wavelength of 670 nm. All results are expressed as a percentage of the control value which was arbitrary set to 100%. After 72 h treatment, cells were washed with 200 µL of PBS and fixed with 4% paraformaldehyde (PFA) for 15 min at room temperature (RT). Next, cells were stained with 1% CV solution. After 20 min, cells were washed in tap water and dried on air. Dye was dissolved in 33% acetic acid and the absorbance was measured at λmax = 540 nm, with the reference/background wavelength of 670 nm. Results were expressed as a percentage of the control value which was arbitrary set to 100%.
(§3) 1. General methods, materials, and procedures
(§4) 1.1.1. Reagents and cells
(§5) Reagents and cells were obtained from following manufacturers: Capricorn Scientific GmbH (Hessen, Germany) – Culture medium RPMI-1640, Dulbecco's Modified Eagle Medium (DMEM), and fetal bovine serum (FBS). Serva (Heidelberg, Germany) – Paraformaldehyde (PFA). Sigma (St. Louis, MO, USA) – Ethylenediaminetetraacetic acid (EDTA), Dimethyl sulfoxide (DMSO), chloroquine, CV, Triton X-100, RNase, PI, PBS, 3-MA, CFSE, and fluorescent mounting medium. AppliChem (MO, USA) –MTT. Thermo Fisher Scientific (Waltham, MA, USA) – DHR. R&D Systems (Minneapolis, MN, USA) – ApoStat. BD (Pharmingen, San Diego, SAD) – Annexin V-FITC (AnnV). Biological Industries (Cromwell, CT, USA) – Penicillin Streptomycin solution. […]
(§6) Afterwards, cells were washed with phosphate-buffered saline (PBS) and stained with AnnV (15 μg/mL) and PI (15 μg/mL). After 15 min incubation at room temperature (RT) protected from light the cells were resuspended in AnnV-binding buffer and analysed using flow cytom-etry. HCT116 cells were incubated with pan-caspase inhibitor Apostat for 30 min at 37 °C to determine whether detected apoptosis was mediated by caspase activation. Afterwards, cells were washed with PBS and analyzed using flow cytometry. […] Afterwards cells were washed with PBS, resuspended and analyzed by flow cytometry (CyFlow® Space Partec using the PartecFloMax® software

[2] = tested on: MDA-MB-231 triple-negative breast adenocarcinoma; assay: Cell viability, crystal violet (CV) assay, MDA-MB-231; assay type: cell-based; conditions: Homo sapiens, 72 h, mean ± SD
Method: as §1, §2, §3, §4, §5, §6

[3] = tested on: A375 melanoma; assay: Cell viability, MTT assay, A375; assay type: cell-based, human; conditions: Homo sapiens, A-375; 72 h, mean ± SD
Method: as §1, §2, §3, §4
(§7) Reagents and cells were obtained from following manufacturers: Capricorn Scientific GmbH (Hessen, Germany) – Culture medium RPMI-1640, Dulbecco's Modified Eagle Medium (DMEM), and fetal bovine serum (FBS). Serva (Heidelberg, Germany) – Paraformaldehyde (PFA). Sigma (St. Louis, MO, USA) – Ethylenediaminetetraacetic acid (EDTA), Dimethyl sulfoxide (DMSO), chloroquine, CV, Triton X-100, RNase, PI, PBS, 3-MA, CFSE, and fluorescent mounting medium. AppliChem (MO, USA) –MTT. Thermo Fisher Scientific (Waltham, MA, USA) – DHR. R&D Systems (Minneapolis, MN, USA) – ApoStat. BD (Pharmingen, San Diego, SAD) – Annexin V-FITC (AnnV). Biological Industries (Cromwell, CT, USA) – Penicillin Streptomycin solution. American Type Culture Collection (ATCC, Manassas, Virginia, USA) – Human lung carcinoma (A549), human breast adenocarcinoma (MDA-MB-231), human colorectal ade-nocarcinoma (HT-29), human colorectal carcinoma (HCT116) and human melanoma (A375).
(§8) Cell lines (A375, HCT116, HT-29 and MDA-MB-231) were cultivated in HEPES-buffered RPMI-1640 medium while A549 cell line was cultivated in Dulbecco's Modified Eagle Medium (DMEM) which were previously supplemented with 10% heat-inactivated FBS, penicillin (100 units/mL), and streptomycin (100 μg/mL). All cells were kept at 37 °C in a humidified atmosphere with 5% CO2. For viability determi-nation cells were seeded at following densities in 96-well plates: 4 x 10^3 cells/well (A375, HT-29 and MDA-MB-231), 5 x 10^3 cells/well (HCT116), and 3 x 10^3 cells/well (A549). […]
(§9) Afterwards, cells were washed with phosphate-buffered saline (PBS) and stained with AnnV (15 μg/mL) and PI (15 μg/mL). […]
(§10) PBS and analyzed using flow cytometry. HCT116 cells were stained with 1 µg/mL of AO solution for 15 min at 37 °C to detect the presence of autophagic cell death. Afterwards cells were washed with PBS, resuspended and analyzed by flow cytometry (CyFlow® Space Partec using the PartecFloMax® software

[4] = tested on: MDA-MB-231 triple-negative breast adenocarcinoma; assay: Cell viability, MTT assay, MDA-MB-231; assay type: cell-based, human; conditions: Homo sapiens, MDA-MB-231; 72 h, mean ± SD
Method: as §1, §2, §3, §4, §7, §8
(§11) Afterwards, cells were washed with phosphate-buffered saline (PBS) and stained with AnnV (15 μg/mL) and PI (15 μg/mL). After 15 min incubation at room temperature (RT) protected from light the cells were resuspended in AnnV-binding buffer and analysed using flow cytom-etry. HCT116 cells were incubated with pan-caspase inhibitor Apostat for 30 min at 37 °C to determine whether detected apoptosis was mediated by caspase activation. Afterwards, cells were washed with PBS and analyzed using flow cytometry. HCT116 cells were stained with 1 µg/mL of AO solution for 15 min at 37 °C to detect the presence of autophagic cell death. Afterwards cells were washed with PBS, resuspended and analyzed by flow cytometry (CyFlow® Space Partec using the PartecFloMax® software

[5] = tested on: primary peritoneal exudate cells; assay: Viability of primary peritoneal exudate cells, CV assay; assay type: cell-based; conditions: 72 h, cells from healthy mice
Method: Primary peritoneal exudates cells (PEC) isolated from C57BL/6 mice were used to estimate the selec-
Mice were obtained from the animal facility at the Institute for Biological Research “Siniša Stanković” - National Institute of the Republic of Serbia, University of Belgrade (Belgrade, Serbia). PEC were cultivated in HEPES-buffered (HEPES = 4-
5% heat-inactivated fetal bovine serum (FBS) and antibiotics under standard growth conditions (37 °C, 5% CO2). For viability determination cells were seeded at a density of 2 x 10^5 cells/well in 96-well plates.
Non-adherent cells were removed two hours after seeding and treatment was applied. Cell viability was determined after 72 h using a crystal violet (CV) assay.
the indicated concentrations for 72 h. Cell viability was determined by the CV test. The data are presented as a mean ± SD from one repre-
sentative out of three independent experiments. *p<0.05 refer to untreated cultures.

[6] = tested on: HCT116 colorectal carcinoma; assay: Cell viability, MTT assay, HCT116; assay type: cell-based, human; conditions: Homo sapiens, HCT-116; 72 h, mean ± SD
Method: as §1, §2, §3, §4, §7, §8, §9, §10

[7] = tested on: A549 lung adenocarcinoma; assay: Cell viability, MTT assay, A549; assay type: cell-based, human; conditions: Homo sapiens, A549; 72 h, mean ± SD
Method: as §1, §2, §3, §4, §7, §8, §11

[8] = tested on: HCT116 colorectal carcinoma; assay: Cell viability, crystal violet (CV) assay, HCT116; assay type: cell-based; conditions: Homo sapiens, HCT-116; 72 h, mean ± SD
Method: as §1, §2, §3, §4, §5, §6

[9] = tested on: A549 lung adenocarcinoma; assay: Cell viability, crystal violet (CV) assay, A549; assay type: cell-based; conditions: Homo sapiens, 72 h, mean ± SD
Method: as §1, §2, §3, §4, §5, §6

[10] = tested on: HT-29 colorectal carcinoma; assay: Cell viability, MTT assay, HT-29; assay type: cell-based, human; conditions: Homo sapiens, HT-29; 72 h, mean ± SD
Method: as §1, §2, §3, §4, §7, §8, §11

[11] = tested on: HT-29 colorectal carcinoma; assay: Cell viability, crystal violet (CV) assay, HT-29; assay type: cell-based; conditions: Homo sapiens, 72 h, mean ± SD
Method: as §1, §2, §3, §4, §5, §6

[12] = physchem; conditions: pH 7.4

Row | SMILES | IC50 [1] [µM] | IC50 [2] [µM] | IC50 [3] [µM] | IC50 [4] [µM] | viability of primary peritoneal exudate cells [5] | IC50 [6] [µM] | IC50 [7] [µM] | IC50 [8] [µM] | IC50 [9] [µM] | IC50 [10] [µM] | IC50 [11] [µM] | chromatographic logD [12]
1 | CC(C)(C)c1cc(C(=O)c2cccs2)cc(C(C)(C)C)c1O [Compound R-830, 2,6-di-tert-butyl-4-(2’-thenoyl)phenol] | 29.4 ± 2.3 | 34 ± 1.6 | 16.7 ± 3.1 | 33.3 ± 1.2 | diminished the viability of primary cells at 100 µM | 20.6 ± 0.4 | 19 ± 0.7 | 30.8 ± 3.2 | 32.6 ± 1.3 | 19.4 ± 0.4 | 24.9 ± 1.3 | 3.91
2 | CC(C)(C)c1cc(C=C2CCOC2=O)cc(C(C)(C)C)c1O [KME-4, 3-([3,5-bis(1,1-dimethylethyl)-4-hydroxyphenyl]methylene)dihydro-2(3H)-furanone] | 36.4 ± 1.3 | 88.6 ± 2.4 | 13.8 ± 0.6 | 80.9 ± 7.3 |  | 18.4 ± 4.6 | 21.9 ± 0.7 | 36.2 ± 1.9 | 36.3 ± 2.8 | 18.5 ± 1.5 | 36.2 ± 1.9 | 3.79
3 | CON1CCC(=Cc2cc(C(C)(C)C)c(O)c(C(C)(C)C)c2)C1=O [Compound E-5110, 3-([3,5-bis(1,1-dimethylethyl)-4-hydroxyphenyl]methylene)-1-methoxy-2-pyrrolidinone] | 33.5 ± 1.7 | 47.3 ± 1.7 | 12.9 ± 1.1 | 34.2 ± 1.2 |  | 25.1 ± 1.1 | 22.1 ± 1.6 | 39.6 ± 2.8 | 41.1 ± 4.3 | 25.6 ± 2.6 | 39.8 ± 2.1 | 3.35
